Measured values from patent US4065453A, “Levorotatory molindone and the use as an antidepressant” (Endo Laboratories, Inc., priority 1976, dated 1977).

Legend:
[1] = Exploratory Loss; format: in vivo, mouse; details: for ED50: po, mouse, p.o., loss of exploratory activity, column 3, read-out: ED50 mouse EXPL. LOSS
From the text: The mouse is placed on a stainless steel wire mesh screen (8 × 12 inches, 3 mesh per inch, 1/4inch mesh openings) "shoe-box" lid (1inch high) and is observed for normal activities, such as nose movements, head movements with apparent visual examination of the area, and/or walking around on the screen. Normal mice respond within 2 to 3 seconds. Absence of or a marked depression of these activities for 5 seconds constitutes a loss of exploratory activity. The ED50 's for the compound of the present invention and for the molindone racemic mixture are given in the following table, along with certain appropriate ratios: […]

[2] = Tetrabenazine Antagonism (Anti-TBZ); format: in vivo, mouse (Carworth CF1 S female mice); details: for ED50: po, 1 h, mouse, p.o., tetrabenazine 32 mg/kg i.p. 30 min after compound
Method: Groups of 10 Carworth CF1 S female mice, 18-21 g each, were fasted 1.5 hours and were incubated with antagonist compounds at oral doses of 0, 5, 25, and 125 mg/kg or 0, 1, 3, 9, 27, and 81 mg/kg in 0.20 ml of 1% Methocel. The mice were challenged 30 minutes later with tetrabenazine (as the methanesulfonate), 32 mg/kg intraperitoneally (dissolved in 0.20 ml 0.05M KCl at pH 2.0). One hour after antagonist (30 minutes after tetrabenzaine), the mice were examined for signs of exploratory activity and ptosis (eyelid closure). Normal exploratory activity (relief from sedation) was recorded when a mouse lifted by the tail from a group of 10 in a testing box and placed on a stainless steel testing box lid (12.5 × 8 inches with 0.33 inch mesh) either turned its head horizontally 30° in both directions or moved to the edge of the screen within 10 seconds after being placed on the screen. Relief from ptosis was recorded when exactly two seconds after placing the mouse facing the observer, lid closure was less than 50% in both eyes.
The ED50 's for the compound of the present invention and for the molindone racemic mixture are given in the following table, along with certain appropriate ratios: […]

[3] = Rat Conditioned Avoidance Response (rat CAR); format: in vivo; details: for ED50: po, rat, p.o., block of conditioned avoidance response in 50% of rats, tested 1, 2 and 4 hours after dosing, column 4
Method: Blocking of CAR in rats at nontoxic doses correlates with major tranquilizer activity in man. Rats are trained to jump out of a pit onto a ledge to avoid shock when presented with a conditioned stimulus of light and sound. Three or four doses of durg are given to a group of 4-8 rats. The animals are tested 1, 2 and 4 hours after dosing. A quantal ED50 is calculated as the dose which would block the CAR in 50% of the rats. The results are given in mg/kg., p.o. (Table 1) The ED50 's for the compound of the present invention and for the molindone racemic mixture are given in the following table, along with certain appropriate ratios: […]

[4] = relief from ptosis, column 1, read-out: ED50 mouse ANTI-TBZ ptosis
[5] = relief from sedation (exploratory activity), column 2, read-out: ED50 mouse ANTI-TBZ expl. loss

Row | SMILES | ED50 [1] [mg/kg] | ED50 [2, 4] [mg/kg] | ED50 [2, 5] [mg/kg] | ED50 [3] [mg/kg] | separation of the antidepressant activity from the sedative activity ([1]; as compared with the racemate, from the ratios in the table, in words) | sedative activity compared with the racemate ([1]; in words) | antidepressant activity compared with the racemate ([2]; in words) | tranquilizer activity compared with the racemate ([3]; in words)
1 | CCc1c(C)[nH]c2c1C(=O)C(CN1CCOCC1)CC2 (racemic) [(±)-molindone, 3-ethyl-6,7-dihydro-2-methyl-5(morpholinomethyl)indol-4(5H)-one, reference compound] | 38 | 7.2 | 9 | 28 |  |  |  | 
2 | CCc1c(C)[nH]c2c1C(=O)C(CN1CCOCC1)CC2 (single isomer, unassigned; (-)) [(-)-molindone] | 25 | 2.7 | 3.4 | 21 | clear separation of the antidepressant activity from the sedative activity | approximately the same sedative and tranquilizer activity as the racemate | significantly greater antidepressant activity | approximately the same sedative and tranquilizer activity as the racemate
